Measurements: PMC10451034, “Highly Efficient Photosensitizers with Molecular Vibrational Torsion for Cancer Photodynamic Therapy” (ACS Central Science, 2023)

Assays:
HepG2 cells [1] = assay: Intracellular ROS detection with DCFH-DA; format: cell-based, human; details: after 660 nm light irradiation
Procedure: In order to explore the mechanism of cellular structure destruction caused by QTCy7-R, intracellular ROS generation was investigated by DCFH-DA reagent. […] Ulteriorly, cell destruction caused by ROS generation was assessed by Calcein-AM/propidium iodide (PI)-mediated fluorescence imaging (Figures 9c and S21). […]
medium (DMEM, Invitrogen) with 10 % fetal bovine serum (Invitrogen) and 1% penicillinstreptomycin. All cells were treated at 37 °C with the humidified atmosphere containing 5% CO2 and 95% air. Before conducting cell imaging experiments, all types of cells were maintained on 35 mm glass-bottom cell dishes for 24 h.
(§1) Confocal fluorescence imaging
(§2) After culturing the cells in 35 mm glass-bottom cell dishes for 24 h, the DMEM medium was replaced with saline, then QTCy7-R was added (3 μM). The confocal fluorescence imaging was carried out and images were recorded. (λex = 640 nm, λem = 680-780 nm). […] After fluorescence imaging, colocalization coefficient was analyzed and recorded. […]
(§3) fluorescence signal (JC-1 monomer). […]
(§4) 2,7-dichlorofluorescein diacetate (DCFH-DA) Detection Kit was chosen to validate the intracellular ROS generation. […] Then the cells were exposed under NIR irradiation, after which the confocal fluorescence imaging was performed . […]

HepG2 cells [2] = assay: Mitochondrial membrane potential detection by JC-1 staining; format: cell-based, human; details: 660 nm irradiation (6 J/cm^2)
Procedure: Next, in order to verify the disruption effect on cell structural integrity of the ^1O2 generation by QTCy7-R under irradiation, JC-1 staining imaging was conducted to monitor the mitochondria membrane potential. […] On the other hand, cell membrane damage caused by the photooxidation of QTCy7-Ac and QTCy7-CHO could be confirmed by a visualized observation. […] Furthermore, the lactate dehydrogenase (LDH) content in cell culture medium was measured to characterize the extent of cell membrane damage.[49] […]
medium (DMEM, Invitrogen) with 10 % fetal bovine serum (Invitrogen) and 1% penicillinstreptomycin. All cells were treated at 37 °C with the humidified atmosphere containing 5% CO2 and 95% air. […]
as §1
as §2, with “recorded.” for “recorded. (λex = 640 nm, λem = 680-780 nm).”
as §3, §4

[3] = system: human mammary carcinoma (MCF7); assay: MTT cytotoxicity assay, MCF7; format: cell-based; details: light or radiation study, MCF7, 660 nm irradiation 12 J/cm^2
Procedure: DMEM medium was replaced with saline to prevent false positive interference. Then the cells were exposed to different following treatments: 1) cells incubated with PBS; 2) cells incubated with PBS under 660 nm irradiation (20 mW/cm2, 10 min); 3) cells incubated with QTCy7-R; 4) cells incubated with QTCy7-R under 660 nm irradiation (20 mW/cm2, 10 min). After being different treated, the cells were stained with Calcein-AM and Propidium Iodide (PI) according to the manufacture instruction. Then the confocal fluorescence imaging was carried out and recorded with a 10 × objective lens.
Cytotoxicity was tested by the reduction of methyl thiazolyl tetrazolium to formazan by succinic acid dehydrogenase in the mitochondria of living cells (MTT assay). […] The MTT solution was carefully removed and 100 μL DMSO was added to dissolve formazan, and the absorbance of each well was measured by a multifunctional microplate reader at 570 nm and 630 nm. […]
Where “OD” represent the absorbance at 570 nm and 630 nm, “ps” and “control” represent experimental groups and control groups, respectively. […]
And the fluorescence signals were monitored at different post -injection time by a NightOWL II LB983 small animal in vivo imaging system (German). […]

Structure (SMILES) | intracellular ROS generation (DCFH-DA fluorescence) (HepG2 cells [1]) | mitochondrial membrane potential change (HepG2 cells [2]) | IC50 [3] [nM]
CCN1/C(=C/C=C2\C=C(c3ccccc3)C=C(/C=C/c3sc4ccccc4[n+]3CC)C2=O)Sc2ccccc21 [QTCy7-Ph] | stronger fluorescence signal | severe mitochondrial depolarization | –
CCOC(=O)C1=C/C(=C\C=C2/Sc3ccccc3N2CC)C(=O)C(/C=C/c2sc3ccccc3[n+]2CC)=C1 [QTCy7-Ac] | stronger fluorescence signal | – | ~600
CCN1/C(=C/C=C2\C=C(C)C=C(/C=C/c3sc4ccccc4[n+]3CC)C2=O)Sc2ccccc21 [QTCy7-Me] | – | severe mitochondrial depolarization | –
